Data from US20250154146A1, “PROTEIN DEGRADERS DEVELOPED ON BASIS OF BCL-2 FAMILY PROTEIN LIGAND COMPOUNDS AND USE THEREOF” (ShanghaiTech University, priority 2022, published 2025).

Experiments:
Format in all cases: cell-based
RS4;11 cells = assay: Thiazolyl blue cell proliferation assay in RS4;11 cells; conditions: Homo sapiens, RS4;11 acute lymphoblastic leukemia cells, 48 hours, read-out: IC50 (nM) for inhibiting the proliferation of RS4;11 cells
Source text: (§1) The cell lines RS4;11 (human acute lymphocytic leukemia cells), Molt-4 cells (human acute lymphocytic leukemia cells), MV4;11 (human myeloid monocytic leukemia cells), and Light II cells were commercially available or purchased from ATCC (American Type Culture Collection) and routinely cultured according to instructions.
1) Study on the proliferation inhibition effects induced by the compounds of the present disclosure designed based on ABT199/263 against BCL-XL-dependent RS4;11 cells:
(§2) The specific steps were as follows: RS4;11 cells were seeded at a density of 3×10^4 cells/well in 90 μL of serum-containing RPMI-1640 culture medium. DT2216 and the compounds of the present disclosure were added to the cell suspension at corresponding concentration gradients. DT2216 and DMSO were used as positive and vehicle control, respectively. The positive control and negative control were treated with the same treatment method as the compounds of the present disclosure. After treating the cells with the compounds of the present disclosure for 48 hours, thiazole blue solution (5 mg/mL) was added at 10 μL/well to the cell suspension, followed by incubation for 3 hours at 37° C. in an incubator with 5% CO2. Then, triple solution (0.1 g/mL SDS, 5% isopropyl alcohol, 10 mM hydrochloric acid) was added, followed by incubation for 4-6 hours at 37° C. in an incubator with 5% CO2. After confirming that all the crystal violets were dissolved under inverted biological microscopy, the absorbance was measured at 490 nm using an Epoch microplate reader (Biotek Corporation). The growth inhibition of the compounds of the present disclosure on the cells was plotted by GraphPad Prism 8 software, and the IC50 values of the compounds of the present disclosure were calculated therefrom. The experiment had 3 replicates per group and was repeated at least three times.
We conducted dose-dependent experiments on the designed and synthesized compounds of the present disclosure in RS4;11 cells, which are highly sensitive to BCL-XL inhibitors. The cells were treated with 7 different concentrations (starting at the highest concentration of 1000 nM or 100 nM; 10-fold serial dilutions) of the compounds for 48 hours, and then tested using the thiazolyl blue cell proliferation assay.

Molt-4 cells = assay: Thiazolyl blue cell proliferation assay in Molt-4 cells; conditions: Homo sapiens, Molt-4 acute lymphocytic leukemia cells, 72 hours, read-out: IC50 (nM) for inhibiting the proliferation of Molt-4 cells
Source text: as §1
3) Study on the proliferation inhibition effects induced by the compounds of the present disclosure designed based on ABT199/263 against BCL-XL-dependent Molt-4 cells:
as §2, with “follows: Molt-4” for “follows: RS4;11”, “of 2×10^4” for “of 3×10^4”, “in 180” for “in 90”, “serum-containing RPMI 1640” for “serum-containing RPMI-1640”, “for 72” for “for 48”, “at 20” for “at 10”

MV4;11 cells = assay: Thiazolyl blue cell proliferation assay in MV4;11 cells; conditions: Homo sapiens, MV4;11 myeloid monocytic leukemia cells, 48 hours, read-out: IC50 (nM) for inhibiting the proliferation of MV4;11 cells
Source text: as §1
2) Study on the proliferation inhibition effects induced by the compounds of the present disclosure designed based on ABT199/263 against BCL-XL-dependent MV4;11 cells:
as §2, with “MV4;11” for “RS4;11”, “2×10^4” for “3×10^4”, “IMDM” for “RPMI-1640”, “µL/well” for “μL/well”

Structure (SMILES)	IC50 (RS4;11 cells) [nM]	IC50 (Molt-4 cells) [nM]	IC50 (MV4;11 cells) [nM]
CC1(C)CCC(CN2CCN(c3ccc(C(=O)NS(=O)(=O)c4ccc(NC[C@H]5CC[C@H](N6CCN(Cc7ccc8c(c7)C(=O)N(C7CCC(=O)NC7=O)C8=O)CC6)CC5)c([N+](=O)[O-])c4)c(Oc4cnc5[nH]ccc5c4)c3)CC2)=C(c2ccc(Cl)cc2)C1 (relative stereo) [BCL-03188, 2-((1H-pyrrolo[2,3-b]pyridin-5-yl)oxy)-4-(4-((4′-chloro-5,5-dimethyl-3,4,5,6-tetrahydro-[1,1′-biphenyl]-2-yl)methyl)piperazin-1-yl)-N-((4-((((trans)-4-(4-((2-(2,6-dioxopiperidin-3-yl)-1,3-dioxoisoindolin-5-yl)methyl)piperazin-1-yl)cyclohexyl)methyl)amino)-3-nitrophenyl)sulfonyl)benzamide]	< 20	< 10	< 20
CC1(C)CCC(c2ccc(Cl)cc2)=C(CN2CCN(c3ccc(C(=O)NS(=O)(=O)c4ccc(N[C@H](CCN5CCN(Cc6cc(Br)c7c(c6)C(=O)N(C6CCC(=O)NC6=O)C7)CC5)CSc5ccccc5)c(S(=O)(=O)C(F)(F)F)c4)cc3)CC2)C1 (stereo partly drawn) [BCL-03178, N-((4-(((2R)-4-(4-((7-bromo-2-(2,6-dioxopiperidin-3-yl)-3-oxoisoindolin-5-yl)methyl)piperazin-1-yl)-1-(phenylthio)butan-2-yl)amino)-3-((trifluoromethyl)sulfonyl)phenyl)sulfonyl)-4-(4-((4′-chloro-4,4-dimethyl-3,4,5,6-tetrahydro-[1,1′-biphenyl]-2-yl)methyl)piperazin-1-yl)benzamide]	–	< 10	–
CC1(C)CCC(CN2CCN(c3ccc(C(=O)NS(=O)(=O)c4ccc(NC[C@H]5CC[C@H](N6CCN(Cc7ccc8c(c7)CN(C7CCC(=O)NC7=O)C8=O)CC6)CC5)c(S(=O)(=O)C(F)(F)F)c4)c(Oc4cnc5[nH]ccc5c4)c3)CC2)=C(c2ccc(Cl)cc2)C1 (stereo partly drawn) [BCL-03179, 2-((1H-pyrrolo[2,3-b]pyridin-5-yl)oxy)-4-(4-((4′-chloro-5,5-dimethyl-3,4,5,6-tetrahydro-[1,1′-biphenyl]-2-yl)methyl)piperazin-1-yl)-N-((4-((((trans)-4-(4-((2-(2,6-dioxopiperidin-3-yl)-1-oxoisoindolin-5-yl)methyl)piperazin-1-yl)cyclohexyl)methyl)amino)-3-((trifluoromethyl)sulfonyl)phenyl)sulfonyl)benzamide]	< 20	< 10	< 20
CC1(C)CCC(c2ccc(Cl)cc2)=C(CN2CCN(c3ccc(C(=O)NS(=O)(=O)c4ccc(NC[C@H]5CC[C@H](N6CCN(Cc7ccc8c(c7)CN(C7CCC(=O)NC7=O)C8=O)CC6)CC5)c(S(=O)(=O)C(F)(F)F)c4)cc3)CC2)C1 (stereo partly drawn) [BCL-03180, 4-(4-((4′-chloro-4,4-dimethyl-3,4,5,6-tetrahydro-[1,1′-biphenyl]-2-yl)methyl)piperazin-1-yl)-N-((4-((((trans)-4-(4-((2-(2,6-dioxopiperidin-3-yl)-1-oxoisoindolin-5-yl)methyl)piperazin-1-yl)cyclohexyl)methyl)amino)-3-((trifluoromethyl)sulfonyl)phenyl)sulfonyl)benzamide]	< 20	–	–
CC1(C)CCC(c2ccc(Cl)cc2)=C(CN2CCN(c3ccc(C(=O)NS(=O)(=O)c4ccc(NC[C@H]5CC[C@H](N6CCN(Cc7ccc8c(c7)CN(C7CCC(=O)NC7=O)C8=O)CC6)CC5)c([N+](=O)[O-])c4)cc3)CC2)C1 (stereo partly drawn) [BCL-03181, 4-(4-((4′-chloro-4,4-dimethyl-3,4,5,6-tetrahydro-[1,1′-biphenyl]-2-yl)methyl)piperazin-1-yl)-N-((4-((((trans)-4-(4-((2-(2,6-dioxopiperidin-3-yl)-1-oxoisoindolin-5-yl)methyl)piperazin-1-yl)cyclohexyl)methyl)amino)-3-nitrophenyl)sulfonyl)benzamide]	< 20	–	–

Continued, values first:

IC50 (RS4;11 cells) [nM]	IC50 (Molt-4 cells) [nM]	IC50 (MV4;11 cells) [nM]	Structure (SMILES)
–	< 10	–	C[C@H]1CN([C@H]2CC[C@H](CNc3ccc(S(=O)(=O)NC(=O)c4ccc(N5CCN(CC6=C(c7ccc(Cl)cc7)CC(C)(C)CC6)CC5)cc4Oc4cnc5[nH]ccc5c4)cc3[N+](=O)[O-])CC2)CCN1Cc1cc(Br)c2c(c1)C(=O)N(C1CCC(=O)NC1=O)C2 (stereo partly drawn) [BCL-03170, 2-((1H-pyrrolo[2,3-b]pyridin-5-yl)oxy)-N-((4-((((trans)-4-((3S)-4-((7-bromo-2-(2,6-dioxopiperidin-3-yl)-3-oxoisoindolin-5-yl)methyl)-3-methylpiperazin-1-yl)cyclohexyl)methyl)amino)-3-nitrophenyl)sulfonyl)-4-(4-((4′-chloro-5,5-dimethyl-3,4,5,6-tetrahydro-[1,1′-biphenyl]-2-yl)methyl)piperazin-1-yl)benzamide]
–	< 10	–	C[C@@H]1CN([C@H]2CC[C@@H](CNc3ccc(S(=O)(=O)NC(=O)c4ccc(N5CCN(CC6=C(c7ccc(Cl)cc7)CC(C)(C)CC6)CC5)cc4Oc4cnc5[nH]ccc5c4)cc3[N+](=O)[O-])CC2)CCN1Cc1cc(Br)c2c(c1)C(=O)N(C1CCC(=O)NC1=O)C2 (stereo partly drawn) [BCL-03171, 2-((1H-pyrrolo[2,3-b]pyridin-5-yl)oxy)-N-((4-((((cis)-4-((3R)-4-((7-bromo-2-(2,6-dioxopiperidin-3-yl)-3-oxoisoindolin-5-yl)methyl)-3-methylpiperazin-1-yl)cyclohexyl)methyl)amino)-3-nitrophenyl)sulfonyl)-4-(4-((4′-chloro-5,5-dimethyl-3,4,5,6-tetrahydro-[1,1′-biphenyl]-2-yl)methyl)piperazin-1-yl)benzamide]
–	< 10	–	C[C@@H]1CN([C@H]2CC[C@H](CNc3ccc(S(=O)(=O)NC(=O)c4ccc(N5CCN(CC6=C(c7ccc(Cl)cc7)CC(C)(C)CC6)CC5)cc4Oc4cnc5[nH]ccc5c4)cc3[N+](=O)[O-])CC2)CCN1Cc1cc(Br)c2c(c1)C(=O)N(C1CCC(=O)NC1=O)C2 (stereo partly drawn) [BCL-03172, 2-((1H-pyrrolo[2,3-b]pyridin-5-yl)oxy)-N-((4-((((trans)-4-((3R)-4-((7-bromo-2-(2,6-dioxopiperidin-3-yl)-3-oxoisoindolin-5-yl)methyl)-3-methylpiperazin-1-yl)cyclohexyl)methyl)amino)-3-nitrophenyl)sulfonyl)-4-(4-((4′-chloro-5,5-dimethyl-3,4,5,6-tetrahydro-[1,1′-biphenyl]-2-yl)methyl)piperazin-1-yl)benzamide]
